Common to all, as to assay type: biochemical
Holding throughout (settings): procedures of Example 14 (TR-FRET)

One experiment addresses JNK3 (Homo sapiens (Human), UniProt P53779). Nature of the experiment: JNK3 TR-FRET kinase assay (Example 14). The protocol:
(§1) 14.3. Active JNK 1, 2 and 3 TR-FRET Assay
(§2) (1) Assay buffer #1 with 0.0025% Tween and 1 mM DTT was prepared using JNK buffer stock solution.
(§3) (2) Assay buffer #2 with 0.025% BSA was prepared using the assay buffer #1.
(§4) (3) Test compound solution preparation: 5× compound solution was prepared using assay buffer #1 with 5% DMSO. The compound solution (10 μl/well) was added to a 384-well plate (Corning, Cat No. 3654).
(§5) (4) aJNK1, 2 or 3 preparation: aJNK stock (100 μg/ml) at −80° C. was thawed on ice and an aJNK (1.6 ng/ml) solution was prepared using assay buffer #2. The aJNK solution (20 μl/well) was added to the plate and the plate was shaken. The enzyme was incubated with the compound at RT for 10 min. (5) ATP/substrate solution preparation: ATP and substrate stocks were thawed on ice. 2.5×ATP/substrate (e.g., 25 μM or 2.5 mM ATP/50 nM EPIW-1) was prepared using assay buffer #1. The ATP/substrate (20 μl/well) was added to the plate and the plate was shaken. The plate was incubated at RT for 15 min. Note: In an exemplary assay, the final ATP concentration was about 1 mM. (6) EDTA preparation: 30 mM EDTA was prepared using 0.5M EDTA stock and assay buffer #1. The EDTA (10 μl/well) was added to the plate to quench the enzyme reaction and the plate was shaken well. (7) Detection reagent preparation: Eu-63 and SA-XL stocks were thawed on ice. 4× Eu-63/SA-XL (2 nM Eu-63/9.4 nM SA-XL) was prepared using JNK detection buffer. The Eu-63/SA-XL solution (20 μl/well) was added to the plate and the plate was shaken. The plate was incubated at RT for 1 hr before reading the plate on LJL using ratiometric method named HTRF.
(§6) 14.4. Coupled JNK 1, 2 and 3 TR-FRET Assay
(§7) (1) Assay buffer with 0.0025% Tween, 0.01% BSA, and 1 mM DTT was prepared using JNK buffer stock solution.
(§8) (2) Test compound solution preparation: 5× compound solution, including EDTA background, was prepared using assay buffer with 5% DMSO. The compound solution (10 μl/well) was added to a 384-well plate (Corning, Cat No. 3654).
(§9) (3) uJNK1,2, or 3 activation reaction preparation: uJNK activation solution was prepared using assay buffer (1.6 ng/ml MKK4, 1.6 ng/ml MKK7, 16 ng/ml uJNK, and 20 uM ATP final). The uJNK activation solution (35 μl/well) was added to the plate, the plate was shaken, and the reaction mixture was incubated with compound at 30° C. for 60 min. (4) c-Jun substrate solution preparation: 50 nM EPIW-1, c-Jun peptide, was prepared using assay buffer (15 nM final). The EPIW-1 solution (15 μl/well) was added to the plate, the plate was shaken and incubated at 30° C. for 60 min. (5) EDTA preparation: 30 mM EDTA was prepared using 0.5M EDTA stock and assay buffer. The EDTA (10 μl/well) was added to the plate to quench the enzyme reaction and the plate was shaken well. (6) Detection reagent preparation: Eu-73 and SA-XL stocks were thawed on ice. 4× Eu-73/SA-XL (2 nM Eu-73/9.4 nM SA-XL) were prepared using JNK detection buffer. The Eu-73/SA-XL solution (20 μl/well) was added to the plate. The plate was shaken and incubated at RT for 1 hr before reading the plate on LJL using ratiometric method named HTRF.
In general terms: In TR-FRET formats the signal depends on donor and acceptor labels being close together.

For a further experiment, the target named is JNK1 (Homo sapiens (Human), UniProt P45983). Nature of the experiment: JNK1 TR-FRET kinase assay (Example 14). The method, then:
as §1, §2, §3, §4, §5, §6, §7, §8, §9

Another experiment deals with JNK2 (Homo sapiens (Human), UniProt P45984). Nature of the experiment: JNK2 TR-FRET kinase assay (Example 14). The method, then:
as §1, §2, §3, §4, §5, §6, §7, §8, §9

JNK1, sequence (P45983 other isoform, or with tags, fused parts or gaps isoform P45983-2, species assumed): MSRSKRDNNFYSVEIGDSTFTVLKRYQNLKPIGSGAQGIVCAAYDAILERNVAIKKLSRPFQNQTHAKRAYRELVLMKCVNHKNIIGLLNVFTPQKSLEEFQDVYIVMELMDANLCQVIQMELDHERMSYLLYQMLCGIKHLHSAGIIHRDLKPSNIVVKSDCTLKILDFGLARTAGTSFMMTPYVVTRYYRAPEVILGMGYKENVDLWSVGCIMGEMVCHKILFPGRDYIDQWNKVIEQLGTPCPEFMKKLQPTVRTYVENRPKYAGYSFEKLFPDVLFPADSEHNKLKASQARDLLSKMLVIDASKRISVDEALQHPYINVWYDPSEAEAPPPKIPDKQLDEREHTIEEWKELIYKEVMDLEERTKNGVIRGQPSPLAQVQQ
JNK3, sequence (P53779 whole entry, species assumed): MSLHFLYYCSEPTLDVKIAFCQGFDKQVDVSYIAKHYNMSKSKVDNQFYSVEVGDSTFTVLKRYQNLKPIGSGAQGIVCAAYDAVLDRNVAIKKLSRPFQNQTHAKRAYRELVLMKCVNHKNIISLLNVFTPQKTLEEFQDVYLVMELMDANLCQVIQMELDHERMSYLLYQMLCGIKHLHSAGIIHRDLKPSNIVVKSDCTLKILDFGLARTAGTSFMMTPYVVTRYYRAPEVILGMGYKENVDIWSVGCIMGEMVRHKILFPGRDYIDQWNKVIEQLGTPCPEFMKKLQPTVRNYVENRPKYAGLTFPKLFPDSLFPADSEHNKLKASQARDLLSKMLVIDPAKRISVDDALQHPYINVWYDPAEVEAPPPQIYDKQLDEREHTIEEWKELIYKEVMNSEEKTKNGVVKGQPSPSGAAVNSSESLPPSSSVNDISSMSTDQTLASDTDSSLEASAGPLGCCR
JNK2, sequence (P45984 whole entry, species assumed): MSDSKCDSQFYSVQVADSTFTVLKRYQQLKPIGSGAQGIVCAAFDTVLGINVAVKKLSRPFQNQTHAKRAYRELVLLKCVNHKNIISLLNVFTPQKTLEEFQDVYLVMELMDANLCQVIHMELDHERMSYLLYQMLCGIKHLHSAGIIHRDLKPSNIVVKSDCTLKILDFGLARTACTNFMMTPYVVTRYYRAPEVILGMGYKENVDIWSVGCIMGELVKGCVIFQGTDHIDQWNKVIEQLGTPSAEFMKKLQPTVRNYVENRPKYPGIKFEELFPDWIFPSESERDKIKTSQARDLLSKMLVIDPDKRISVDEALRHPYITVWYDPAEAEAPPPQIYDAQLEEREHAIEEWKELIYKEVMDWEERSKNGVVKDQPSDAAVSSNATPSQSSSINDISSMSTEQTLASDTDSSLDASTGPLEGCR

What is called IC50 is the concentration that inhibits the measured activity by half. A high value points to a need for much substance. On to `O=C(Cc1c(F)ccc2ncccc12)Nc1scc(Br)c1-c1ncn[nH]1` [N-(4-bromo-3-(1H-1,2,4-triazol-5-yl)thiophen-2-yl)-2-(6-fluoroquinolin-5-yl)acetamide], for which the IC50 on JNK3, against JNK1 and at JNK2 was < 100 nM throughout.
On to `COc1ccc(CC(=O)Nc2sccc2-c2nnn(C)n2)cc1` [2-(4-methoxyphenyl)-N-(3-(2-methyl-2H-tetrazol-5-yl)thiophen-2-yl)acetamide], for which the IC50 against JNK3 is 100 to 10000 nM; against JNK1 it was 100 to 10000 nM; against JNK2 it was > 10000 nM.
As for `O=C(CN1C(=O)CCc2ccc(Cl)cc21)Nc1scc(Br)c1-c1ncn[nH]1` [N-(4-bromo-3-(1H-1,2,4-triazol-5-yl)thiophen-2-yl)-2-(7-chloro-2-oxo-3,4-dihydroquinolin-1(2H)-yl)acetamide], the half-inhibitory concentration (IC50) against JNK3, on JNK1 and against JNK2 was < 100 nM throughout.
Regarding `O=C(Cn1c(=O)ccc2cc(F)c(F)cc21)Nc1scc(Br)c1-c1ncn[nH]1` [N-(4-bromo-3-(1H-1,2,4-triazol-5-yl)thiophen-2-yl)-2-(6,7-difluoro-2-oxoquinolin-1(2H)-yl)acetamide], the IC50 at JNK3, against JNK1 and on JNK2 was < 100 nM each time.
For the compound `COc1ccc(CC(=O)Nc2ccsc2-n2cc(C)cn2)cc1` [2-(4-methoxyphenyl)-N-(2-(4-methyl-1H-pyrazol-1-yl)thiophen-3-yl)acetamide], the IC50 against JNK3, against JNK1 and against JNK2 was > 10000 nM each time.
Regarding `COc1ccc(CC(=O)Nc2ccsc2-c2nnc(C(C)C)o2)cc1` [N-(2-(5-isopropyl-1,3,4-oxadiazol-2-yl)thiophen-3-yl)-2-(4-methoxyphenyl)acetamide], the results for the IC50 on JNK3, against JNK1 and against JNK2 were > 10000 nM, > 10000 nM and > 50000 nM, respectively.
In the case of `COc1ccc(CC(=O)Nc2ccsc2-n2cnc(C)c2)cc1` [2-(4-methoxyphenyl)-N-(2-(4-methyl-1H-imidazol-1-yl)thiophen-3-yl)acetamide], the IC50 against JNK3, against JNK1 and against JNK2 was > 50000 nM throughout.
In the case of `COc1ccc(CC(=O)Nc2ccsc2-c2nc(C(C)(C)C)n[nH]2)cc1` [N-(2-(3-tert-butyl-1H-1,2,4-triazol-5-yl)thiophen-3-yl)-2-(4-methoxyphenyl)acetamide], the IC50 at JNK3 is 100 to 10000 nM; at JNK1, 100 to 10000 nM; against JNK2 it was > 10000 nM.
With `Cn1cnc(-c2c(Cl)csc2NC(=O)Cn2c(=O)ccc3nc(C(F)(F)F)ccc32)n1` [N-(4-chloro-3-(1-methyl-1H-1,2,4-triazol-3-yl)thiophen-2-yl)-2-(2-oxo-6-(trifluoromethyl)-1,5-naphthyridin-1(2H)-yl)acetamide], the concentration for half-maximal inhibition (IC50) on JNK3, against JNK1 and against JNK2 was < 100 nM each time.
Turning to `O=C(CN1C(=O)CCc2ccccc21)Nc1scc(Br)c1-c1ncn[nH]1` [N-(4-bromo-3-(1H-1,2,4-triazol-5-yl)thiophen-2-yl)-2-(2-oxo-3,4-dihydroquinolin-1(2H)-yl)acetamide], the IC50 against JNK3, at JNK1 and at JNK2 was < 100 nM in each case.
Regarding `O=C(Cn1c(=O)ccc2c(F)cccc21)Nc1scc(Br)c1-c1ncn[nH]1` [N-(4-bromo-3-(1H-1,2,4-triazol-5-yl)thiophen-2-yl)-2-(5-fluoro-2-oxoquinolin-1(2H)-yl)acetamide], the IC50 against JNK3, against JNK1 and at JNK2 was < 100 nM each time.
Take `O=C(CN1C(=O)CCc2ncccc21)Nc1scc(Br)c1-c1nccs1` [N-(4-bromo-3-(thiazol-2-yl)thiophen-2-yl)-2-(2-oxo-3,4-dihydro-1,5-naphthyridin-1(2H)-yl)acetamide]: the IC50 against JNK3 was < 100 nM; against JNK1 it was < 100 nM; on JNK2 it was 100 to 10000 nM.
For the compound `O=C(Cn1c(=O)ccc2cnccc21)Nc1ccsc1-c1cscn1` [2-(2-oxo-1,6-naphthyridin-1(2H)-yl)-N-(2-(thiazol-4-yl)thiophen-3-yl)acetamide], the IC50 against JNK3 was 100 to 10000 nM; on JNK1, < 100 nM; against JNK2 it was 100 to 10000 nM.
On to `O=C(Cc1cc(F)cc2ncccc12)Nc1scc(Br)c1-c1ncn[nH]1` [N-(4-bromo-3-(1H-1,2,4-triazol-5-yl)thiophen-2-yl)-2-(7-fluoroquinolin-5-yl)acetamide], for which the IC50 against JNK3 is < 100 nM; on JNK1, < 100 nM; on JNK2, 100 to 10000 nM.
With `COc1ccc(CC(=O)Nc2ccsc2-n2cncn2)cc1` [N-(2-(1H-1,2,4-triazol-1-yl)thiophen-3-yl)-2-(4-methoxyphenyl)acetamide], the IC50 is > 10000 nM against JNK3, > 10000 nM against JNK1 and > 50000 nM on JNK2.
On to `O=C(Cc1cccc2cc(C(F)(F)F)cnc12)Nc1scc(Br)c1-c1nc[nH]n1` [N-(4-bromo-3-(1H-1,2,4-triazol-3-yl)thiophen-2-yl)-2-(3-(trifluoromethyl)quinolin-8-yl)acetamide], for which the IC50 on JNK3, against JNK1 and at JNK2 was 100 to 10000 nM throughout.
Take `O=C(Cc1cccc2cnccc12)Nc1scnc1-c1cscn1` [N-(4,4′-bithiazol-5-yl)-2-(isoquinolin-5-yl)acetamide]: the IC50 at JNK3 was < 100 nM; against JNK1 it was < 100 nM; against JNK2, 100 to 10000 nM.
As for `O=C(Cc1cccc2ncccc12)Nc1scc(Br)c1-c1ncn[nH]1` [N-(4-bromo-3-(1H-1,2,4-triazol-5-yl)thiophen-2-yl)-2-(quinolin-5-yl)acetamide], the IC50 at JNK3, against JNK1 and on JNK2 was < 100 nM in each case.
Consider `CN(C)CCn1cnc(-c2c(Cl)csc2NC(=O)Cn2c(=O)ccc3cc(C(F)(F)F)ccc32)n1` [N-(4-chloro-3-(1-(2-(dimethylamino)ethyl)-1H-1,2,4-triazol-3-yl)thiophen-2-yl)-2-(2-oxo-6-(trifluoromethyl)quinolin-1(2H)-yl)acetamide], for which the IC50 at JNK3, against JNK1 and on JNK2 was < 100 nM each time.
In the case of `COCn1nnc(-c2ccsc2NC(=O)Cc2ccc(OC)cc2)n1` [N-(3-(2-(methoxymethyl)-2H-tetrazol-5-yl)thiophen-2-yl)-2-(4-methoxyphenyl)acetamide], the IC50 on JNK3, on JNK1 and at JNK2 was > 50000 nM each time.
Consider `O=C(Cc1cccc2nccn12)Nc1scc(Br)c1-c1ncn[nH]1` [N-(4-bromo-3-(1H-1,2,4-triazol-5-yl)thiophen-2-yl)-2-(imidazo[1,2-a]pyridin-5-yl)acetamide], for which the IC50 on JNK3 was 100 to 10000 nM; against JNK1, < 100 nM; against JNK2, 100 to 10000 nM.
As to `O=C(Cn1c(=O)ccc2cnccc21)Nc1scc(Br)c1-c1ncn[nH]1` [N-(4-bromo-3-(1H-1,2,4-triazol-5-yl)thiophen-2-yl)-2-(2-oxo-1,6-naphthyridin-1(2H)-yl)acetamide], the IC50 against JNK3, on JNK1 and against JNK2 was < 100 nM each time.
In the case of `N#Cc1csc(NC(=O)CN2C(=O)CCc3ncccc32)c1-c1nccs1` [N-(4-cyano-3-(thiazol-2-yl)thiophen-2-yl)-2-(2-oxo-3,4-dihydro-1,5-naphthyridin-1(2H)-yl)acetamide], the IC50 against JNK3, at JNK1 and against JNK2 was < 100 nM throughout.
